Consider one molecule from patent US8008260B2, “Methods of protecting against apoptosis using lipopeptides” (Cleveland Clinic Foundation, priority 2005, dated 2011).

Peptide text beside a SMILES is read from it. * marks the point of attachment. Propyl(2R-PamO,3-PamO) = CCCCCCCCCCCCCCCC(=O)OC[C@H](C*)OC(=O)CCCCCCCCCCCCCCC

One series concerns ICR mice. As to the kind of experiment: Radiation LD50/30 and dose modification factor (DMF30). It is filed as in vivo. Here is the method:
To determine DMF (dose modification factor), 3 μg of CBLB601/mouse was injected i.m. 24 hr prior to irradiation and control mice were injected with PBS. Both drug-injected and control groups received a single dose of TBI covering the dose range that leads to 10-90% mortality within the chosen time intervals (7 days for the gastrointestinal syndrome mortality, and 30 days for the hematopoietic syndrome mortality). The percent mortality-radiation dose graphs were built and LD50/7 and LD50/30 (LD50 at 7 days and 30 days, respectively) were calculated using probit or logit statistical analysis. DMF (also known as dose reduction factor, DRF) was calculated as a ratio of radiation LD50 for CBLB601-treated groups and radiation LD50 for vehicle-treated groups of mice for the chosen survival time point, 7 or 30 days. To calculate DMF30, which is the DMF at day 30 post-irradiation, the radiation LD50/30 values for mice treated with PBS or 3 μg of CBLB601 was determined. For this, PBS-injected groups were irradiated with doses of 6, 6.5, 7, and 7.7 Gy of TBI, and CBLB601-injected groups were irradiated with doses of 10, 10.5, 11, 11.5, and 12 Gy of TBI. […] However, inconsistency in the response to some radiation doses (7 Gy appeared non-toxic whereas 6.5 Gy caused 60% lethality at 30 days) in the control mice precluded an accurate calculation of the DMF30 for CBLB601. Nevertheless, it was expected that the LD50/30 for ICR mice was around 7 Gy [an average for the majority of mouse strains; Monobe et al., Radiother Oncology 73 Suppl 2: S12709, 2004)]. Thus, the value of DMF30 for CBLB601 was estimated roughly as ˜1.6.

In the next series the test system is NIH Swiss mice. As to the kind of experiment: Protection from lethal total body gamma radiation, lipopeptides s.c. 30 minutes prior. It is filed as in vivo. Conditions: for survival post-treatment: <0.1 MTD. Here is the method: Lipopeptides are potent activators of NF-κB and, as such, may act as inhibitors of apoptotic death. To determine whether lipopeptides function as radioprotectants, various lipopeptides were initially tested to determine the maximal tolerable dose (MTD). Various lipopeptides were then tested to measure their protective effect in NIH Swiss mice to lethal hematopoietic or nd gastrointestinal syndromes after exposure to 10 Gy or 13-15 Gy of total body gamma radiation, respectively. Lipopeptides (0.3-10 μg/mouse) were administered subcutaneously 30 minutes prior to irradiation.
The results of a representative experiment using R-PAM2C-SKKKK (SEQ ID NO: 8) (hereafter, this compound is called, CBLB601) at <0.1 MTD are shown in FIG. 3. As expected, control mice irradiated with 10 Gy died between 11 and 15 days post-treatment, while all animals that received CBLB601 lived beyond 35 days post-treatment. Similarly, control mice irradiated with 13 Gy died between 6 and 10 days post-treatment, while all but one animal that received CBLB601 lived beyond 35 days post-treatment. The radioprotective ability of CBLB601 was further analyzed by measuring the effect of radiation on spleen size.

Series [1] can be described thus: Solubility of the lipopeptides.
Another series addresses T1, TLR2/TLR6 heterodimer (Homo sapiens, UniProt O60603+Q9Y2C9).
T1 construct: expressed in transfected cells; host or cells: 293 cells
The series can be described thus: NF-κB-dependent reporter activity in 293 cells expressing the TLR2/TLR6 heterodimer. To be noted: in vitro activity, 293 cells expressing TLR2/TLR6. Format: cell-based. Also on record: NF-κB activation: scale not given here. How it is done:
NF-κB-dependent reporter activity was measured in 293 cells that expressed the TLR2/YLR6 heterodimer. […] None of the non-palmitoylated corresponding peptides activated the NF-κB reporter (FIG. 18B). The peptide component of CBLB617 has a (−4) charge, which should prevent it from interacting with negatively charged cell surface markers. […] Table 5 summarizes the in vitro activity and solubility of all the compounds.

Setting [2] is: 3 μg/mouse i.m. 24 hr prior to irradiation, ProBit analysis.

T1 sequence (O60603 21-784): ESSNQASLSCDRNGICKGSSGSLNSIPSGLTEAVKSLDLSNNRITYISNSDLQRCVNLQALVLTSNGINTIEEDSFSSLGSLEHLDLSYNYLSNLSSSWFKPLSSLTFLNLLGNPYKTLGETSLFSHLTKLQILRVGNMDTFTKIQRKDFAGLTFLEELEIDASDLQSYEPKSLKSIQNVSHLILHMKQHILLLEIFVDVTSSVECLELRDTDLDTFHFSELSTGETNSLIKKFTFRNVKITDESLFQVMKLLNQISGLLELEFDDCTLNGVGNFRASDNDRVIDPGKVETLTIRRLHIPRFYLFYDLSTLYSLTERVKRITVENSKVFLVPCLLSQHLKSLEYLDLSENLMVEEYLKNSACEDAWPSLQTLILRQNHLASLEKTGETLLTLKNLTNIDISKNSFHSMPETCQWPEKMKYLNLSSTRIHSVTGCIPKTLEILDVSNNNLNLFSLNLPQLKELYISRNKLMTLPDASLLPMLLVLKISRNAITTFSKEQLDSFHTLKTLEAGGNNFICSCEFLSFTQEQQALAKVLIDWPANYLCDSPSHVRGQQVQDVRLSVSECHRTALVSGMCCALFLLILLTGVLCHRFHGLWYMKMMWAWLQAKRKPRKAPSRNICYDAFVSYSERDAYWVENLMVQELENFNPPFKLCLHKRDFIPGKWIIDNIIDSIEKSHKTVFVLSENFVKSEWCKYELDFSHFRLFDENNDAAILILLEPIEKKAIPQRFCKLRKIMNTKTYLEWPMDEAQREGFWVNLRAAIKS
T1 sequence (Q9Y2C9 32-796): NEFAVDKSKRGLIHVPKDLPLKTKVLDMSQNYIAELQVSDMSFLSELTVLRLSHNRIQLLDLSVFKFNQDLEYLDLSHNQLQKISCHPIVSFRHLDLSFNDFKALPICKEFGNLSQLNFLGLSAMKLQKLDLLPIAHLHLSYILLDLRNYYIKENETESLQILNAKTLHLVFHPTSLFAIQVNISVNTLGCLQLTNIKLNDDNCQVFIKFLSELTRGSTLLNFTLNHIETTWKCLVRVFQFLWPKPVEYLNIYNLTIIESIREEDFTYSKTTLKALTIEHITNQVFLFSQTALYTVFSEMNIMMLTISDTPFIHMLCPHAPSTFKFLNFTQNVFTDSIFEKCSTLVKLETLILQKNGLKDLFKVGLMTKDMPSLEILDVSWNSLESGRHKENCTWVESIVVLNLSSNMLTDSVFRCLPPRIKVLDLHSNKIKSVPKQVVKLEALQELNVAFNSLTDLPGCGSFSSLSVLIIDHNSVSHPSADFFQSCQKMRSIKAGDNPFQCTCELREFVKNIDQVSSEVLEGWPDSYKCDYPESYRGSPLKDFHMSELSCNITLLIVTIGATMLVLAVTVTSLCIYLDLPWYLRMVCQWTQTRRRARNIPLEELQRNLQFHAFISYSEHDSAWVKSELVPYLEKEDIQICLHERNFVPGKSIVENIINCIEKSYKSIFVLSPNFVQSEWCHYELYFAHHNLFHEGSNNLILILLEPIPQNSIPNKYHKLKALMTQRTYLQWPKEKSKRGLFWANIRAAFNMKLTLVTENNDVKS

Take `CCCCCCCCCCCCCCCC(=O)OC[C@H](CSC[C@H](N)C(=O)N[C@@H](CO)C(=O)N[C@@H](CCCCN)C(=O)N[C@@H](CCCCN)C(=O)N[C@@H](CCCCN)C(=O)N[C@@H](CCCCN)C(=O)O)OC(=O)CCCCCCCCCCCCCCC` [CBLB601, R-PAM2C-SKKKK] (H-C(Propyl(2R-PamO,3-PamO))SKKKK-OH): the “radiation LD50/30, average” value in the series on ICR mice (setting [2]) is listed as around 11.32 Gy. In addition, the “radiation LD50/30, range” value with ICR mice (setting [2]) is 11.07-11.61 Gy. The “DMF30 (dose modification factor at day 30)” value in the series on ICR mice (3 μg/mouse i.m. 24 hr prior, control LD50/30 taken as around 7 Gy from literature) is reported as around 1.6. Besides, the survival post-treatment in the series with NIH Swiss mice (10 Gy, all animals) is given as above 35 days; with NIH Swiss mice (13 Gy, all but one animal), above 35 days. The “effect of radiation on spleen size” value with NIH Swiss mice (13 Gy total body gamma irradiation (FIG. 4)) was “significantly less reduction in the size of the spleen”. The “protection of the thymus from radiation” value in the series with NIH Swiss mice (data not shown) is reported as “protected the thymus from radiation”. For the same molecule, the Solubility result in series [1] is on record as “Excellent”. Further, the NF-κB activation on TLR2/TLR6 heterodimer was 100.
